Structures are written as SMILES.

In the assay the target is AMPK. Put plainly: AMPK activation, enzyme-linked immunosorbent assay. The class given is biochemical. Conditions: compounds of Table 1 (Table 6). How it is done:
Compounds of Table 1 were assayed for their ability to activate AMPK using an enzyme-linked immunosorbent assay.
Compounds of Table 2 were assayed for their ability to activate AMPK using an enzyme-linked immunosorbent assay.
Compounds of Table 3 were assayed for their ability to activate AMPK using an enzyme-linked immunosorbent assay.
Compounds of Table 4 were assayed for their ability to activate AMPK using an enzyme-linked immunosorbent assay.
Compounds of Table 5 were assayed for their ability to activate AMPK using an enzyme-linked immunosorbent assay.
On to `N#Cc1ccc(CN2CCC(NC(=O)c3ccc(OC4CCN(c5ccc(C(F)(F)F)cc5)CC4)nc3)CC2)cc1` [1-35, N-(1-(4-cyanobenzyl)piperidin-4-yl)-6-(1-(4-(trifluoromethyl)phenyl)piperidin-4-yloxy)nicotinamide], for which the EC50 fell in the range of 100 to 500 nM.
Compound `O=C(NC1CCN(Cc2ccc3ccccc3c2)CC1)c1ccc(OC2CCN(c3ccc(C(F)(F)F)cc3)CC2)cn1` [1-37, N-(1-(naphthalen-2-ylmethyl)piperidin-4-yl)-5-(1-(4-(trifluoromethyl)phenyl)piperidin-4-yloxy)picolinamide] displayed an EC50 of 500 to 1000 nM.
The compound `O=C(NC1CCN(Cc2ccccc2)CC1)c1ccc(OC2CCN(c3ccc(C(F)(F)F)cc3)CC2)cn1` [1-38, N-(1-benzylpiperidin-4-yl)-5-(1-(4-(trifluoromethyl)phenyl)piperidin-4-yloxy)picolinamide] gave a concentration for a half-maximal effect (EC50) of 1000 to 5000 nM.
`CN(C)c1ccc(CN2CCC(NC(=O)c3ccc(OC4CCN(c5ccc(C(F)(F)F)cc5)CC4)cn3)CC2)cc1` [1-39, N-(1-(4-(dimethylamino)benzyl)piperidin-4-yl)-5-(1-(4-(trifluoromethyl)phenyl)piperidin-4-yloxy)picolinamide] displayed an EC50 of 100 to 500 nM.
For the compound `O=C(NC1CCN(Cc2ccc(N3CCOCC3)cc2)CC1)c1ccc(OC2CCN(c3ccc(C(F)(F)F)cc3)CC2)cn1` [1-40, N-(1-(4-morpholinobenzyl)piperidin-4-yl)-5-(1-(4-(trifluoromethyl)phenyl)piperidin-4-yloxy)picolinamide], the EC50 is less than 100 nM.
`N#Cc1ccc(CN2CC(NC(=O)c3ccc(OC4CCN(c5ccc(C(F)(F)F)cc5)CC4)cn3)C2)cc1` [1-41, N-(1-(4-cyanobenzyl)azetidin-3-yl)-5-(1-(4 (trifluoromethyl)phenyl)piperidin-4-yloxy)picolinamide] displayed an EC50 of 100 to 500 nM.
In the case of `O=C(NC1CN(Cc2ccncc2)C1)c1ccc(OC2CCN(c3ccc(C(F)(F)F)cc3)CC2)cn1` [1-42, N-(1-(pyridin-4-ylmethyl)azetidin-3-yl)-5-(1-(4-(trifluoromethyl)phenyl)piperidin-4-yloxy)picolinamide] it was 1000 to 5000 nM; in that of `O=C(NC1CCN(Cc2ccncc2)CC1)c1cccc(OC2CCN(c3ccc(C(F)(F)F)cc3)CC2)n1` [1-43, N-(1-(pyridin-4-ylmethyl)piperidin-4-yl)-6-(1-(4-(trifluoromethyl)phenyl)piperidin-4-yloxy)picolinamide], 1000 to 5000 nM.
The compound `O=C(NC1CCN(Cc2cncnc2)CC1)c1ccc(OC2CCN(c3ccc(C(F)(F)F)cc3)CC2)cn1` [1-44, N-(1-(pyrimidin-5-ylmethyl)piperidin-4-yl)-5-(1-(4-(trifluoromethyl)phenyl)piperidin-4-yloxy)picolinamide] had an EC50 of 100 to 500 nM.
As for `COC(=O)c1ccc(CN2CCC(NC(=O)c3ccc(OC4CCN(c5ccc(C(F)(F)F)cc5)CC4)nc3)CC2)cc1` [1-45, methyl 4-((4-(6-(1-(4-(trifluoromethyl)phenyl)piperidin-4-yloxy)nicotinamido)piperidin-1-yl)methyl)benzoate], the EC50 was more than 10000 nM.
In the case of `O=C(O)c1ccc(CN2CCC(NC(=O)c3ccc(OC4CCN(c5ccc(C(F)(F)F)cc5)CC4)nc3)CC2)cc1` [1-46, 4-((4-(6-(1-(4-(trifluoromethyl)phenyl)piperidin-4-yloxy)nicotinamido)piperidin-1-yl)methyl)benzoic acid] it was 1000 to 5000 nM; in that of `O=C(NC1CCN(Cc2cn(C(c3ccccc3)(c3ccccc3)c3ccccc3)cn2)CC1)c1ccc(OC2CCN(c3ccc(C(F)(F)F)cc3)CC2)cn1` [1-47, 5-(1-(4-(trifluoromethyl)phenyl)piperidin-4-yloxy)-N-(1-((1-trityl-1H-imidazol-4-yl)methyl)piperidin-4-yl)picolinamide], 1000 to 5000 nM; in that of `O=C(NC1CCN(Cc2c[nH]cn2)CC1)c1ccc(OC2CCN(c3ccc(C(F)(F)F)cc3)CC2)cn1` [1-48, N-(1-((1H-imidazol-4-yl)methyl)piperidin-4-yl)-5-(1-(4-(trifluoromethyl)phenyl)piperidin-4-yloxy)picolinamide], 1000 to 5000 nM.
`CC(C)(C)OC(=O)NCCCNC(=O)c1ccc(OC2CCN(c3ccc(C(F)(F)F)cc3)CC2)cn1` [1-49, tert-butyl 3-(5-(1-(4-(trifluoromethyl)phenyl)piperidin-4-yloxy)picolinamido) propylcarbamate]: the EC50 is less than 100 nM.
The value for `O=C(NCCCNCc1ccncc1)c1ccc(OC2CCN(c3ccc(C(F)(F)F)cc3)CC2)cn1` [1-50, N-(3-(pyridin-4-ylmethylamino)propyl)-5-(1-(4-(trifluoromethyl)phenyl)piperidin-4-yloxy)picolinamide] was 1000 to 5000 nM.
The value for `O=S(=O)(NC1CCN(Cc2ccncc2)CC1)c1ccc(OC2CCN(c3ccc(C(F)(F)F)cc3)CC2)nc1` [1-51, N-(1-(pyridin-4-ylmethyl)piperidin-4-yl)-6-(1-(4-(trifluoromethyl)phenyl)piperidin-4-yloxy)pyridine-3-sulfonamide] was 100 to 500 nM.
The value for `N#Cc1ccc(N2CCC(Oc3ccc(S(=O)(=O)NC4CCN(Cc5ccncc5)CC4)cn3)CC2)cc1` [1-52, N-(1-(pyridin-4-ylmethyl)piperidin-4-yl)-6-(1-(4-cyanophenyl)piperidin-4-yloxy)pyridine-3-sulfonamide] was 100 to 500 nM; that for `N#Cc1ccc(CN2CCC(Oc3ccc(S(=O)(=O)NC4CCN(Cc5ccncc5)CC4)cn3)CC2)cc1` [1-53, 6-(1-(4-cyanobenzyl)piperidin-4-yloxy)-N-(1-(pyridin-4-ylmethyl)piperidin-4-yl)pyridine-3-sulfonamide] was 100 to 500 nM.
Take `CC(C)(C)OC(=O)N1CCC(NS(=O)(=O)c2ccc(OC3CCN(c4ccc(C(F)(F)F)cc4)CC3)nc2)CC1` [1-54, tert-butyl 4-(6-(1-(4-(trifluoromethyl)phenyl)piperidin-4-yloxy)pyridine-3-sulfonamido)piperidine-1-carboxylate]: the EC50 was in the range of 1000 to 5000 nM.
Take `O=S(=O)(NC1CCNCC1)c1ccc(OC2CCN(c3ccc(C(F)(F)F)cc3)CC2)nc1` [1-55, N-(piperidin-4-yl)-6-(1-(4-(trifluoromethyl)phenyl)piperidin-4-yloxy)pyridine-3-sulfonamide]: the EC50 was in the range of 1000 to 5000 nM.
In the case of `N#Cc1ccc(CN2CCC(NS(=O)(=O)c3ccc(OC4CCN(c5ccc(C(F)(F)F)cc5)CC4)nc3)CC2)cc1` [1-56, N-(1-(4-cyanobenzyl)piperidin-4-yl)-6-(1-(4-(trifluoromethyl)phenyl)piperidin-4-yloxy)pyridine-3-sulfonamide] it was 5000 to 10000 nM; in that of `N#Cc1cccc(CN2CCC(NS(=O)(=O)c3ccc(OC4CCN(c5ccc(C(F)(F)F)cc5)CC4)nc3)CC2)c1` [1-57, N-(1-(3-cyanobenzyl)piperidin-4-yl)-6-(1-(4-(trifluoromethyl)phenyl)piperidin-4-yloxy)pyridine-3-sulfonamide], 500 to 1000 nM; in that of `O=S(=O)(NC1CCN(Cc2ccc(C(F)(F)F)cc2)CC1)c1ccc(OC2CCN(c3ccc(C(F)(F)F)cc3)CC2)nc1` [1-58, N-(1-(4-(trifluoromethyl)benzyl)piperidin-4-yl)-6-(1-(4-(trifluoromethyl)phenyl)piperidin-4-yloxy)pyridine-3-sulfonamide], less than 100 nM.
`O=S(=O)(NC1CCN(Cc2cccc(C(F)(F)F)c2)CC1)c1ccc(OC2CCN(c3ccc(C(F)(F)F)cc3)CC2)nc1` [1-59, N-(1-(3-(trifluoromethyl)benzyl)piperidin-4-yl)-6-(1-(4-(trifluoromethyl)phenyl)piperidin-4-yloxy)pyridine-3-sulfonamide] came in with an EC50 of 100 to 500 nM.
The value for `O=C(c1ccc(F)cc1)N1CCC(NS(=O)(=O)c2ccc(OC3CCN(c4ccc(C(F)(F)F)cc4)CC3)nc2)CC1` [1-60, N-(1-(4-fluorobenzoyl)piperidin-4-yl)-6-(1-(4-(trifluoromethyl)phenyl)piperidin-4-yloxy)pyridine-3-sulfonamide] was more than 10000 nM; that for `Cc1c(C(=O)NC2CCN(C(=O)OC(C)(C)C)CC2)oc2cc(OC3CCN(c4ccc(C(F)(F)F)cc4)CC3)ccc12` [1-61, tert-butyl 4-(3-methyl-6-(1-(4-(trifluoromethyl)phenyl)piperidin-4-yloxy)benzofuran-2-carboxamido)piperidine-1-carboxylate] was 100 to 500 nM.
In the case of `Cc1c(C(=O)NC2CCNCC2)oc2cc(OC3CCN(c4ccc(C(F)(F)F)cc4)CC3)ccc12` [1-62, 3-methyl-N-(piperidin-4-yl)-6-(1-(4-(trifluoromethyl)phenyl)piperidin-4-yloxy)benzofuran-2-carboxamide] it was 5000 to 10000 nM; in that of `Cc1c(C(=O)NC2CCN(Cc3ccc(F)cc3)CC2)oc2cc(OC3CCN(c4ccc(C(F)(F)F)cc4)CC3)ccc12` [1-63, N-(1-(4-fluorobenzyl)piperidin-4-yl)-3-methyl-6-(1-(4-(trifluoromethyl)phenyl)piperidin-4-yloxy)benzofuran-2-carboxamide], less than 100 nM.
`Cc1c(C(=O)NC2CCN(Cc3ccc(C#N)cc3)CC2)oc2cc(OC3CCN(c4ccc(C(F)(F)F)cc4)CC3)ccc12` [1-64, N-(1-(4-cyanobenzyl)piperidin-4-yl)-3-methyl-6-(1-(4-(trifluoromethyl)phenyl)piperidin-4-yloxy)benzofuran-2-carboxamide] registered an EC50 of less than 100 nM.
The value for `Cc1c(C(=O)NC2CCN(Cc3ccncc3)CC2)oc2cc(OC3CCN(c4ccc(C(F)(F)F)cc4)CC3)ccc12` [1-65, 3-methyl-N-(1-(pyridin-4-ylmethyl)piperidin-4-yl)-6-(1-(4-(trifluoromethyl)phenyl)piperidin-4-yloxy)benzofuran-2-carboxamide] was less than 100 nM; that for `Cc1c(C(=O)NC2CCN(Cc3cccc(C#N)c3)CC2)oc2cc(OC3CCN(c4ccc(C(F)(F)F)cc4)CC3)ccc12` [1-66, N-(1-(3-cyanobenzyl)piperidin-4-yl)-3-methyl-6-(1-(4-(trifluoromethyl)phenyl)piperidin-4-yloxy)benzofuran-2-carboxamide] was less than 100 nM.

The EC50 is the concentration giving half of the maximal effect. A high value points to weaker potency.

For the origin of these results see patent US9511058B2, “Methods for using carboxamide, sulfonamide and amine compounds” (Rigel Pharmaceuticals, Inc., priority 2010, dated 2016).
